The results in this text go back to patent US20180264134A1, “A COMPOSITION OF GOLD NANOPARTICLES HAVING ANTIMICROBIAL PEPTIDES BOUND ON THEIR SURFACE FOR USE THE TREATMENT OF WOUND HEALING OR IN THE TREATMENT OF ISCHEMIC OR VASCULAR DISEASES OR IN THE TREATMENT OF SKIN DISORDERS” (priority 2015, published 2018).

The test system of data set [1] is Escherichia coli (ATCC 25922). The data set is classed as cell-based. The conditions noted are these: 10^5 CFU of E. coli. How it is done: The antimicrobial activity testing may be: Escherichia coli (ATCC 25922) was grown at 37° C. and maintained on LB plates (Luria-Bertani broth with 1.5% agar). […] Aliquots (100 μL) were taken out from the respective suspensions at 2 h intervals and diluted in PBS buffer to give 10^3 bacteria per mL and plated on LB agar plates followed by incubation at 37° C. Colonies were counted after 24 h of incubation. The collected supernatant was tested for antimicrobial activity as described above.

Data set [2] deals with HUVECs. In words: Cytotoxicity in HUVECs (PI viability, ATP, ROS). In kind it is cell-based. How it is done:
In an embodiment of the cytotoxicity studies in HUVECs and HaCaT may be seeded at a density of 1×10^4 and 2×10^4 cells per well respectively and cultured in a 96-well plate for 24 and then incubated with soluble LL37 (0.5, 1, 10, 30, 60 μg/mL), LL37 Au-NPs and AuNPs suspended in culture medium at different concentrations (25, 50, 100 and 200 μg/mL). After 5 and 24 h, CellTiter-Glo® Luminescent Cell Viability Assay (Promega) was used to assess the ATP production of the cells according to the supplier's instructions. For ROS quantification, cells were seeded at a density of 4×10^4 cells/cm^2 in 24-well plates and cultured for 24 h. Either LL37-Au NPs or Au NPs suspended in culture medium at different concentrations (25, 50, 100 and 200 μg/mL) were added to cells and left for 5 h and 48 h. Before the treatment ended, cells were dosed with 100 μM of 6-carboxy-2′,7′-dichlorodihydrofluorescein diacetate (DCFH-DA), a dye commonly used to measure intracellular changes in ROS, for 1 hour. After washing the cells twice, they were trypsinized, centrifuged and resuspended in PBS to proceed with flow cytometry analysis (FACS Canto II, BD Biosciences). 1 mM H2O2 was used as a positive control for ROS production. In addition, propidium iodide (PI) (1 μg/mL final concentration) was used to quantify cell viability and to exclude the dead cells (i.e. PI positive cells) from the DCFH analysis.

The test system of data set [3] is chorioallantoic membrane (CAM). In words: Chorioallantoic membrane (CAM) assay. The data set is classed as in vivo. To be noted: CAM vs vehicle. How it is done:
In an embodiment, the evaluation of the pro-angiogenic properties of LL37-Au NPs. […] The formation of new blood vessels is a prerequisite of tissue repair and wound healing. Therefore, it was evaluated the inductive properties of LL37 and LL37-Au NPs on human umbilical vein endothelial cells (HUVECs) to secrete vascular endothelial growth factor (VEGF165) (FIG. 14b). […] Next, the assessment of the pro-angiogenic activity of LL37 and LL37-Au NPs in a chorioallantoic membrane (CAM) assay was made.

Another data set has as its system HaCaT keratinocyte cells. Kind of data set: Internalization mechanism (endocytosis inhibitors / siRNA, flow cytometry). In kind it is cell-based, human. To be noted: vs scrambled siRNA. The procedure:
In an embodiment the HaCaT keratinocyte cells were cultured on 24 well plates (1×10^6 cells/well) and inhibited by one of the following chemicals during 30 min before adding a suspension of Rhodamine-labelled NPs (15 μg/mL): dynasor (100 μM), cytochalasin D (100 μM), nocodazole (25 uM), filipin III (1 μM) and polyinosinic acid (100 μg/mL), 5-(N-ethyl-N-isopropyl)amiloride (EIPA), dextran sulfate. The inhibitor concentrations were based in values reported in literature and further validated by us to have no cytotoxic effect over the period of the assay (6 h), as confirmed by viability assay. The incubation of the cells with NPs for different times was performed in the presence of the inhibitor. As controls, HaCaT keratinocyte cells without NPs and cells incubated with NPs without inhibitor were used. […] Cells were then evaluated as before.
In an embodiment the NP uptake mechanism was also studied on HaCaT keratinocyte cells by silencing specific proteins of clathrin-mediated endocytosis (CLTC and LDLR), caveolin-mediated endocytosis (CAV1), GEEC-CCLIC pathways (CDC42) and macropinocytosis (RAC1 and CTBP1) and scavenger receptor (SCARA3) by siRNA (Thermo Fisher). […] In all FACS analysis, a total of 10,000 events were recorded per run. […]

Data set [4] deals with HUVECs. In words: Membrane potential by DiOC5(3) flow cytometry in HUVECs. The data set is classed as cell-based, human. The conditions noted are these: 5 h exposure. The procedure:
In an embodiment the membrane potential can be determined by: HUVEC and HaCaT cells were seeded at a density of 4×10^4 cells/cm^2 and in 24-well plates and cultured for 24 h. Either LL37 Au-NPs or Au-NPs suspended in culture medium at different concentrations (25, 50, 100 and 200 μg/mL, n=3) were added to cells. Soluble LL37 were also used in the concentration of 0.5, 1, 10, 30, 60 μg/mL. After 5 and 48 h, cells were harvested, resuspended in medium with 5 nM of DiOC5(3) (Sigma-Aldrich) and incubated for 5 min at room temperature in the dark, prior to the analysis with the flow cytometer (FACSCalibur, BD Biosciences). Cells treated with gramicidin (10 μM) or valinomycin (10 μM) were used as controls for cell depolarization and hyperpolarization, respectively.
For orientation: A flow cytometer gives signals particle by particle.

Structures are written as SMILES. Values after ≈ are worked out from the molar mass of the structure shown.

As for `CC[C@H](C)[C@H](NC(=O)[C@H](CCCCN)NC(=O)[C@H](CCC(=O)O)NC(=O)[C@H](CCCCN)NC(=O)[C@H](CO)NC(=O)[C@H](CCCCN)NC(=O)[C@H](CCCNC(=N)N)NC(=O)[C@H](Cc1ccccc1)NC(=O)[C@H](Cc1ccccc1)NC(=O)[C@H](CC(=O)O)NC(=O)CNC(=O)[C@H](CC(C)C)NC(=O)[C@@H](N)CC(C)C)C(=O)NCC(=O)N[C@@H](CCCCN)C(=O)N[C@@H](CCC(=O)O)C(=O)N[C@@H](Cc1ccccc1)C(=O)N[C@@H](CCCCN)C(=O)N[C@@H](CCCNC(=N)N)C(=O)N[C@H](C(=O)N[C@H](C(=O)N[C@@H](CCC(N)=O)C(=O)N[C@@H](CCCNC(=N)N)C(=O)N[C@H](C(=O)N[C@@H](CCCCN)C(=O)N[C@@H](CC(=O)O)C(=O)N[C@@H](Cc1ccccc1)C(=O)N[C@@H](CC(C)C)C(=O)N[C@@H](CCCNC(=N)N)C(=O)N[C@@H](CC(N)=O)C(=O)N[C@@H](CC(C)C)C(=O)N[C@H](C(=O)N1CCC[C@H]1C(=O)N[C@@H](CCCNC(=N)N)C(=O)N[C@H](C(=O)N[C@@H](CCC(=O)O)C(=O)N[C@@H](CO)C(=O)N[C@@H](CS)C(N)=O)[C@@H](C)O)C(C)C)[C@@H](C)CC)C(C)C)[C@@H](C)CC` [LL37], in data set [1], the “minimal inhibition concentration (MIC)” value was determined as 5 µg/mL (≈ 1.09 µM). For the same compound, in the data set on HUVECs [2], the “concentration showing cytotoxic effect” value stood at 10000 ng/mL. Besides, in the data set on HUVECs [2] (5 and 48 h), the “concentration up to which no significant change in cell viability, ATP production, ROS” value was not above 30000 ng/mL. Also, the “concentration at which significant cell death and ROS production were observed” value in the data set on HUVECs [2] (48 h) amounted to 30000 ng/mL. Also, the “pro-angiogenic activity (vessel growth)” value in data set [3] is on record as “induced vessel growth”. Further, the “reduction of uptake upon SCARA3 siRNA knockdown” value in the data set with HaCaT keratinocyte cells was 60%. Also, in the data set with HUVECs [4], the concentration causing depolarization result is “above 30 μg/mL” and the concentration causing hyperpolarization result was “below 30 μg/mL”.
